Results: the supplement of paper PMC10307832

Key:
Assay in all cases: relative viability (nuclei count vs DMSO), 5 days (fraction); higher = more cells survive
NCI-H1944 = test system: NCI-H1944
Procedure, shortened: (§1)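 A single step with final 0.05% Triton X-100, 1% formaldehyde and 1 ug/ml Hoechst fixed the cells and stained nuclei 5 days after treatment. Lung cancer cell lines in 1536-well plates had been treated by pin tool the day after seeding with one drug alone or a fixed anchor-drug dose plus five library-drug doses (not always all listed) in √10 steps, and nuclei were counted on 4× images. Relative viability is the ratio of nuclei in treated wells to nuclei in vehicle wells, taken as the median of duplicate plates.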

NCI-H596 = test system: NCI-H596
Procedure, shortened: as §1

NCI-H650 = test system: NCI-H650
Procedure, shortened: as §1

NCI-H1666 = test system: NCI-H1666
Procedure, shortened: as §1

SK-MES-1 = test system: SK-MES-1
Procedure, shortened: as §1

LK-2 = test system: LK-2
Procedure, shortened: as §1

HCC-78 = test system: HCC-78
Procedure, shortened: as §1

NCI-H838 = test system: NCI-H838
Procedure, shortened: as §1

NCI-H1355 = test system: NCI-H1355
Procedure, shortened: as §1

NCI-H1975 = test system: NCI-H1975
Procedure, shortened: as §1

LU99A = test system: LU99A
Procedure, shortened: as §1

NCI-H358 = test system: NCI-H358
Procedure, shortened: as §1

LXF-289 = test system: LXF-289
Procedure, shortened: as §1

PC-3 [JPC-3] = test system: PC-3 [JPC-3]
Procedure, shortened: as §1

BEN = test system: BEN
Procedure, shortened: as §1

LCLC-97TM1 = test system: LCLC-97TM1
Procedure, shortened: as §1

NCI-H1651 = test system: NCI-H1651
Procedure, shortened: as §1

LC-2-ad = test system: LC-2-ad
Procedure, shortened: as §1

NCI-H2087 = test system: NCI-H2087
Procedure, shortened: as §1

NCI-H661 = test system: NCI-H661
Procedure, shortened: as §1

Q: What does the source list for CCN(CC)CCCCNc1ncc2cc(-c3cc(OC)cc(OC)c3)c(NC(=O)NC(C)(C)C)nc2n1 + CS(=O)(=O)CCNCc1ccc(-c2ccc3ncnc(Nc4ccc(OCc5cccc(F)c5)c(Cl)c4)c3c2)o1 [Lapatinib] (partner 2 µM)?
A: relative viability (NCI-H1944; first compound 0.01 µM): 0.903; relative viability (NCI-H1944; first compound 0.03162 µM): 0.789; relative viability (NCI-H1944; first compound 0.1 µM): 0.996; relative viability (NCI-H1944; first compound 0.3162 µM): 0.836; relative viability (NCI-H1944; first compound 1 µM): 0.676; relative viability (NCI-H596; first compound 0.01 µM): 0.967; relative viability (NCI-H596; first compound 0.03162 µM): 1.04; relative viability (NCI-H596; first compound 0.1 µM): 1.11; relative viability (NCI-H596; first compound 0.3162 µM): 0.977; relative viability (NCI-H596; first compound 1 µM): 0.854; relative viability (NCI-H650; first compound 0.01 µM): 0.988; relative viability (NCI-H650; first compound 0.03162 µM): 0.944; relative viability (NCI-H650; first compound 0.1 µM): 1.06; relative viability (NCI-H650; first compound 0.3162 µM): 1.18; relative viability (NCI-H650; first compound 1 µM): 0.734; relative viability (NCI-H1666; first compound 0.01 µM): 0.819; relative viability (NCI-H1666; first compound 0.03162 µM): 0.62; relative viability (NCI-H1666; first compound 0.1 µM): 0.604; relative viability (NCI-H1666; first compound 0.3162 µM): 0.684; relative viability (NCI-H1666; first compound 1 µM): 0.498; relative viability (SK-MES-1; first compound 0.01 µM): 0.518; relative viability (SK-MES-1; first compound 0.03162 µM): 0.456; relative viability (SK-MES-1; first compound 0.1 µM): 0.542; relative viability (SK-MES-1; first compound 0.3162 µM): 0.455; relative viability (SK-MES-1; first compound 1 µM): 0.354; relative viability (LK-2; first compound 0.01 µM): 0.98; relative viability (LK-2; first compound 0.03162 µM): 0.814; relative viability (LK-2; first compound 0.1 µM): 0.966; relative viability (LK-2; first compound 0.3162 µM): 0.645; relative viability (LK-2; first compound 1 µM): 0.303; relative viability (HCC-78; first compound 0.03162 µM): 1.09; relative viability (HCC-78; first compound 0.1 µM): 1.09; relative viability (HCC-78; first compound 0.3162 µM): 0.87; relative viability (HCC-78; first compound 1 µM): 0.748; relative viability (NCI-H838; first compound 0.01 µM): 0.865; relative viability (NCI-H838; first compound 0.03162 µM): 0.993; relative viability (NCI-H838; first compound 0.1 µM): 1.2; relative viability (NCI-H838; first compound 0.3162 µM): 0.969; relative viability (NCI-H838; first compound 1 µM): 0.563; relative viability (NCI-H1355; first compound 0.01 µM): 1; relative viability (NCI-H1355; first compound 0.03162 µM): 0.897; relative viability (NCI-H1355; first compound 0.1 µM): 1.2; relative viability (NCI-H1355; first compound 0.3162 µM): 1.19; relative viability (NCI-H1355; first compound 1 µM): 0.924; relative viability (NCI-H1975; first compound 0.01 µM): 1.02; relative viability (NCI-H1975; first compound 0.03162 µM): 0.882; relative viability (NCI-H1975; first compound 0.1 µM): 0.952; relative viability (NCI-H1975; first compound 0.3162 µM): 1.12; relative viability (NCI-H1975; first compound 1 µM): 0.693; relative viability (LU99A; first compound 0.01 µM): 0.946; relative viability (LU99A; first compound 0.03162 µM): 0.924; relative viability (LU99A; first compound 0.1 µM): 1.17; relative viability (LU99A; first compound 0.3162 µM): 1.14; relative viability (LU99A; first compound 1 µM): 0.93; relative viability (NCI-H358; first compound 0.01 µM): 0.449; relative viability (NCI-H358; first compound 0.03162 µM): 0.484; relative viability (NCI-H358; first compound 0.1 µM): 0.457; relative viability (NCI-H358; first compound 0.3162 µM): 0.498; relative viability (NCI-H358; first compound 1 µM): 0.406; relative viability (LXF-289; first compound 0.01 µM): 0.893; relative viability (LXF-289; first compound 0.03162 µM): 0.944; relative viability (LXF-289; first compound 0.1 µM): 0.941; relative viability (LXF-289; first compound 0.3162 µM): 0.865; relative viability (LXF-289; first compound 1 µM): 0.599; relative viability (PC-3 [JPC-3]; first compound 0.01 µM): 0.479; relative viability (PC-3 [JPC-3]; first compound 0.03162 µM): 0.453; relative viability (PC-3 [JPC-3]; first compound 0.1 µM): 0.519; relative viability (PC-3 [JPC-3]; first compound 0.3162 µM): 0.538; relative viability (PC-3 [JPC-3]; first compound 1 µM): 0.446; relative viability (BEN; first compound 0.01 µM): 0.76; relative viability (BEN; first compound 0.03162 µM): 0.539; relative viability (BEN; first compound 0.1 µM): 0.767; relative viability (BEN; first compound 0.3162 µM): 0.835; relative viability (BEN; first compound 1 µM): 0.651; relative viability (LCLC-97TM1; first compound 0.03162 µM): 0.958; relative viability (LCLC-97TM1; first compound 0.1 µM): 1.13; relative viability (LCLC-97TM1; first compound 0.3162 µM): 0.923; relative viability (LCLC-97TM1; first compound 1 µM): 1.12; relative viability (NCI-H1651; first compound 0.01 µM): 0.896; relative viability (NCI-H1651; first compound 0.03162 µM): 1.03; relative viability (NCI-H1651; first compound 0.1 µM): 1.18; relative viability (NCI-H1651; first compound 0.3162 µM): 0.844; relative viability (NCI-H1651; first compound 1 µM): 0.554; relative viability (LC-2-ad; first compound 0.01 µM): 1.05; relative viability (LC-2-ad; first compound 0.03162 µM): 1; relative viability (LC-2-ad; first compound 0.1 µM): 1.22; relative viability (LC-2-ad; first compound 0.3162 µM): 1.12; relative viability (LC-2-ad; first compound 1 µM): 0.917; relative viability (NCI-H2087; first compound 0.01 µM): 1.15; relative viability (NCI-H2087; first compound 0.03162 µM): 0.99; relative viability (NCI-H2087; first compound 0.1 µM): 1.23; relative viability (NCI-H2087; first compound 0.3162 µM): 1.06; relative viability (NCI-H2087; first compound 1 µM): 1.07; relative viability (NCI-H661; first compound 0.01 µM): 0.569; relative viability (NCI-H661; first compound 0.03162 µM): 0.457; relative viability (NCI-H661; first compound 0.1 µM): 0.432; relative viability (NCI-H661; first compound 0.3162 µM): 0.502; relative viability (NCI-H661; first compound 1 µM): 0.493
